Assay results: patent US20240299354A1, “COMPOSITIONS AND METHODS FOR TREATING CANCER” (The Regents of the University of Michigan, priority 2021, published 2024)

How the values were obtained:
4T1 tumors [1] = assay: Myh9 and Mylk expression in 4T1 tumors of treated mice (real-time PCR, immunoblots); design: species or system mouse; conditions: in vivo, α-MT in drinking water
Method: (§1) For the therapeutic experiments, 2*10^4 4T1 cells were inoculated into the fourth right mammary fat pad of BALB/cJ mice. On day 3, mice were treated (i.p.) with 200 μg of anti-PD-L1 (Bio X Cell) every 3 days, and/or with 250 μg of 4-HAP (i.p., 278564, Sigma) every other day, and/or α-MT (2 mg/mL, M8377, Sigma) in drinking water. Tumor diameters were measured using calipers.
Total RNA was extracted using TRIzol™ Reagent (ThermoFisher Scientific, USA). RNA was quantified by using NanoDrop spectrophotometer. Reverse transcription of the total cellular RNA was carried out using oligo (dT) primers and M-MLV reverse transcriptase (ThermoFisher Scientific, USA). RT-PCR primers are listed (Table 6). PCR was performed using QuantStudio 3 Real-time PCR system (Appliedbiosystems, Thermo Fisher Scientific, USA).
Cell lysates were prepared in RIPA buffer (Thermo Fisher Scientific, USA). The protein concentrations of cell lysates were determined by BCA protein assay kit (Thermo Scientific, USA). Equivalent amounts of total cellular protein were separated by SDS PAGE and transferred to PVDF membranes. The proteins were detected with specific antibodies (Table 7) and developed using ChemiDoc™ Imaging System (Bio-Rad, USA).

4T1 cells = assay: 4T1 cell stiffness in vitro, Optical Tweezers Microscopy; assay type: cell-based, mouse; conditions: FIG. 8c
Method: OTM was established to measure tumor cell stiffness. A modular OTM (Thorlabs—OKBT) was adapted for axial cell indentation and force measurement. Briefly, a collimated laser beam (YLM-5-IPG Photonics—Yb fiber laser 1064 nm) was focused through a 100× objective (Nikon, N.A.=1.25, oil immersion) to produce a stable optical trap for 3 μm diameter silica microbeads (Bangs Laboratories) dispersed in the medium. During data acquisition, the cells were maintained at 37° C. by an integrated temperature controller unit (RS Components). The sample was imaged through the trapping objective and a tube lens by a CMOS camera (Thorlabs—DCC1240C). A microbead probe was individually trapped and positioned above the cell nucleus area of a selected cell using a piezoelectric NanoMax 3-axis flexure stage (Thorlabs). The position of the microbead in the trap was tracked by back focal plane interferometry method using the laser light scattered by the trapped bead. The trap height was in the range 3-6 μm from the cover-slip. The trap stiffness was calculated using the equipartition theorem and the power spectrum density methods considering the stiffness variations due to spherical aberrations and neighborhood of the cover-slip. […] Tumor cell stiffness was determined and expressed as […] per site. At least 15 cells per condition were analyzed.

4T1 tumors [2] = assay: tumor stiffness in vivo by atomic force microscopy; design: species or system mouse; conditions: FIG. 5f
Method: as §1
AFM was used to measure tumor tissue stiffness in vivo. MFP-3D AFM (Asylum Research, Santa Barbara, CA) combined with a Nikon Ti inverted optical microscope (Nikon, Melville, NY) was used to optically align the probe to the cells. The probes used in this study were MCST-AUHW (Bruker, Camarillo, CA) with a nominal spring constant of 0.03 N/m. […] To eliminate the confounding effects of neighboring cells on cytoskeleton arrangement and morphology, single cells were measured.
For in vivo tumor cell stiffness detection, fresh tumor tissues were excised and prepared immediately as frozen slices. […] The deflection sensitivity was determined in fluid using glass substrates as an infinitely stiff reference material. AFM at room temperature involved recording up to 6×6 point grids (36 force-displacement curves per map) was recorded. […] Force curves were analyzed using the Oliver and Pharr method. Tumor stiffness was determined and expressed as log 10 (pascal) per site. At least 24 sites per tumor tissue were analyzed.

SLC6A14 = target: T1, SLC6A14 (Homo sapiens, UniProt Q9UN76); conditions: reference 41; cited from earlier work
T1 sequence (Q9UN76 1-642): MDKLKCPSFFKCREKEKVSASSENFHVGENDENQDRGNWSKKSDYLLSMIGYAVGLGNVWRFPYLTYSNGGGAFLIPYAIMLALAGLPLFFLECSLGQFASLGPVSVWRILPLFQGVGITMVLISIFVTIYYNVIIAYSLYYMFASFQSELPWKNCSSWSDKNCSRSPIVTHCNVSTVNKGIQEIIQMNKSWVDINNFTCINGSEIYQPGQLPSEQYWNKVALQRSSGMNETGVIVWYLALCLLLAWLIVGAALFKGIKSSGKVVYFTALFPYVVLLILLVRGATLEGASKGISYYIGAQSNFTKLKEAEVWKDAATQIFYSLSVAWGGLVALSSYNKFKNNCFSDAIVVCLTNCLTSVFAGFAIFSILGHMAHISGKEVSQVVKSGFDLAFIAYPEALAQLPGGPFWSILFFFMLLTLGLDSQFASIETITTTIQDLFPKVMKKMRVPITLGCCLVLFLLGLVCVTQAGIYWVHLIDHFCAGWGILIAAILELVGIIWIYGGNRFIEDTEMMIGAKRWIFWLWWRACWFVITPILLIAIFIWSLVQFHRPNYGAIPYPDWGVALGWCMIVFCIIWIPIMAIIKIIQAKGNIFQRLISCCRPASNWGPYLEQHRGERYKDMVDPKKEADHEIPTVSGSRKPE

4T1 tumors [3] = assay: therapeutic experiments in 4T1 tumor bearing BALB/cJ mice (tumor volume, tumor weight); assay type: in vivo, mouse; conditions: anti-PD-L1 and combination experiment
Method: Six to eight week-old female BALB/cJ mice were purchased from The Jackson Laboratory. The work was approved by the Institutional Animal Care and Use Committee at the University of Michigan. Slc6a14^−/− and Slc6a14^+/+ 4T1 tumor cells were inoculated into the fourth right mammary fat pad of BALB/cJ mice. Tumor size was measured every three days using calipers fitted with Vernier scale. Tumor volume (TV) was calculated using the formula: TV=0.5×L×W^2. In some cases, single cell suspensions were made from spleen and tumor tissues for immune phenotype and function analysis.
as §1

tumor cells [4] = conditions: reference 46; cited from earlier work
tumor cells [5] = assay: tumor receptivity to CTL-killing in vitro; assay type: cell-based; conditions: FIG. 9g as printed
T47D cells = assay: perforin and granzyme B-induced tumor cell death; assay type: cell-based, human; conditions: FOXO1 knocked down T47D cells, FIG. 4h
Method: Tumor cells were exposed to hypoxia for 24 hours, or the indicated conditions. Then, tumor cells were co-incubated with perform (APB317Hu01, Cloud-Clone) and granzyme B (2906-SE-010, R&D system) for 10 minutes. PI (10 μg/ml) was added into the culture. PI^+ cells were measured by flow cytometry.

| SMILES | levels of Myh9 and Mylk proteins in 4T1 tumors (4T1 tumors [1]; immunoblots, FIG. 5e) | levels of Myh9 and Mylk transcripts in 4T1 tumors (4T1 tumors [1]; real-time PCR, FIG. 5d) | 4T1 cell stiffness (4T1 cells) | 4T1 tumor cell stiffness in vivo (4T1 tumors [2]) | inhibition of SLC6A14 (SLC6A14) | 4T1 tumor progression / tumor growth (4T1 tumors [3]; α-MT, tumor volumes and weight, FIG. 5i-j) | stiffening of tumor cells (tumor cells [4]) | tumor receptivity to CTL-killing (tumor cells [5]) | 4T1 tumor progression / tumor growth (4T1 tumors [3]; 4-HAP, tumor weights and volume, FIG. 5k-l) | perforin and granzyme B-induced T47D cell death (T47D cells) |
| --- | --- | --- | --- | --- | --- | --- | --- | --- | --- | --- |
| CC(N)(Cc1c[nH]c2ccccc12)C(=O)O (racemic) [α-MT, α-methyl-DL-tryptophan] | reduced levels | reduced levels | enhanced | increased | functionally inhibits | partially and similarly slowed down |  |  |  |  |
| CC(=O)c1ccc(O)cc1 [4-HAP, 4′-Hydroxyacetophenone] |  |  |  |  |  |  | can stiffen tumor cells | promote | partially slowed down | rescued |
